Reference: ChEMBL document CHEMBL1157386, “A C-3 methylated isocembranoid and 10-oxocembranoids from a formosan soft coral, Sinularia grandilobata” (J Nat Prod, 2008)
Converted amounts (≈) assume the structure as drawn. The source made the active and inactive calls. The calls are words filed in the database; no cut-off is given here.

What was measured:
[1] = test system: HepG2; assay: Cytotoxicity against human HepG2 cells by MTT assay; type: functional, cell-based
[2] = test system: MCF7; assay: Cytotoxicity against human MCF7 cells by MTT assay; type: functional, cell-based
[3] = test system: A549; assay: Cytotoxicity against human A549 cells by MTT assay; type: functional, cell-based
[4] = test system: MDA-MB-23; assay: (§1) Cytotoxicity against human […] by MTT assay; type: functional, cell-based
[5] = test system: RAW264.7; assay: Antiinflammatory activity in LPS-stimulated mouse RAW264.7 cells assessed as reduction of iNOS levels at 50 uM by immunoblot analysis relative to control; type: functional
[6] = test system: RAW264.7; assay: Antiinflammatory activity in LPS-stimulated mouse RAW264.7 cells assessed as reduction of COX2 expression by immunoblot analysis relative to control; type: functional, cell-based
[7] = test system: RAW264.7; assay: Induction of iNOS levels in LPS-stimulated mouse RAW264.7 cells at 50 uM by immunoblot analysis relative to control; type: functional
[8] = test system: RAW264.7; assay: Induction of COX2 expression in LPS-stimulated mouse RAW264.7 cells at 50 uM by immunoblot analysis relative to control; type: functional
[9] = as §1; type: functional, cell-based

Row | Structure (SMILES) | Activity [1] | Activity [2] | Activity [3] | Activity [4] | Activity [5] | Activity [6] | Activity [7] [%] | Activity [8] [%] | IC50 [9] [µg/mL]
1 | C/C1=C/C(=O)C[C@@H](C)CC/C(C(C)(C)O)=C\C=C(/C)CCC1 | inactive | inactive | inactive | inactive | – | – | – | – | –
2 | C/C1=C\CCC(=O)[C@H](C)/C=C(/C(C)(C)O)CC[C@H](C)CC(=O)C1 | inactive | inactive | inactive | inactive | – | – | – | – | –
3 | CO[C@@]1(C(C)(C)O)/C=C/[C@](C)(O)CC/C=C(\C)CC(=O)C[C@@H](C)CC1 (relative stereo) | inactive | inactive | inactive | inactive | – | – | – | – | –
4 | C/C1=C\CC[C@]2(C)O[C@H]2/C=C(/C(C)(C)O)CC[C@H](C)CC(=O)C1 (relative stereo) [GRANDILOBATIN B] | inactive | inactive | inactive | inactive | inactive | inactive | 112.4 | 117.3 | –
5 | C/C1=C\C=C(\C(C)(C)O)CC[C@H](C)CC(=O)C/C(C)=C/CC1 [GRANDILOBATIN D] | inactive | inactive | inactive | – | 28.7% | inactive | – | – | 15.8 (≈ 51.9 µM)
